According to publication PMC3914206:

Target: T1, panel of 442 kinases (Homo sapiens, UniProt O95835)
T1 construct: purchased KINOMEscan
T1 sequence (O95835 1-1130): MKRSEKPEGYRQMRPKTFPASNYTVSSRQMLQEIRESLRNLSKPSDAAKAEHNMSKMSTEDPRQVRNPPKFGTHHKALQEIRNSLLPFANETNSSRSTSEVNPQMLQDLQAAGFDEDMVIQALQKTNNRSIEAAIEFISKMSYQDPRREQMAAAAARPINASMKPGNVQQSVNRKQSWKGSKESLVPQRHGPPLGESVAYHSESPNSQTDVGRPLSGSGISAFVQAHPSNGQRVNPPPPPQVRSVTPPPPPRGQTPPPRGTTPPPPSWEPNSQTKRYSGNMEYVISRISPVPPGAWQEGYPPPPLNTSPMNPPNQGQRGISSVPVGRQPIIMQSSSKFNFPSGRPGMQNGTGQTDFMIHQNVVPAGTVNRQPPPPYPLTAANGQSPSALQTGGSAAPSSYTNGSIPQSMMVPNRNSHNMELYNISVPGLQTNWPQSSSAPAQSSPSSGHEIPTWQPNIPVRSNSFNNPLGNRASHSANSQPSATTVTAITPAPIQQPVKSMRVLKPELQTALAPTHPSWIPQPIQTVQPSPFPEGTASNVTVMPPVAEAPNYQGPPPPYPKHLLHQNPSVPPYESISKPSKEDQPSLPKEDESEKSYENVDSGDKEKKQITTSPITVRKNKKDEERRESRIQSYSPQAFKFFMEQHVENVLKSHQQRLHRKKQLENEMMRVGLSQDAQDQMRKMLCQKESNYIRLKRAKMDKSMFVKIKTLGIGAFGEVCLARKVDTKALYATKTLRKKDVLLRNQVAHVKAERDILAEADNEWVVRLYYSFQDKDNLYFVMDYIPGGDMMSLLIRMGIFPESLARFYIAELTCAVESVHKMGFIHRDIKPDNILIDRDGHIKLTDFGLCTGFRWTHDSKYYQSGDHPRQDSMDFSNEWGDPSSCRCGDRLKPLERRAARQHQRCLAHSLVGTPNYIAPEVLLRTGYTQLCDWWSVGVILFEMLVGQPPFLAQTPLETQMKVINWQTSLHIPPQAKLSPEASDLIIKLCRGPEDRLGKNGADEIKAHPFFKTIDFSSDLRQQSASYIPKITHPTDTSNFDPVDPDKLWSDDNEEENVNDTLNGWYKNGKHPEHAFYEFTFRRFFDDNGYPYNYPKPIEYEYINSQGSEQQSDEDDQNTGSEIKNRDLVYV
Format: binding
Conditions: Compound Concentration 10 µM
Description: We assessed the selectivity of members of this scaffold using the KINOMEscan methodology across a near comprehensive panel of 442 kinases [[18,27]].

| SMILES | KINOMEscan: LATS1 |
| --- | --- |
| COc1cc(C(=O)N2CCC(N3CCN(C)CC3)CC2)ccc1Nc1ncc2c(n1)N(C)c1ccccc1C(=O)N2C [15 (LRRK2-IN-1)] | 100 |
| CCOc1cc(C(=O)N2CCC(N3CCN(C)CC3)CC2)ccc1Nc1ncc2c(n1)N(C1CCCC1)c1ccccc1C(=O)N2C [Compound 26] | 100 |
| COc1cc(C(=O)N2CCC(N3CCN(C)CC3)CC2)ccc1Nc1ncc2c(n1)N(C1CCCC1)c1ccccc1C(=O)N2C [Compound 25, 11-cyclopentyl-2-((2-methoxy-4-(4-(4-methylpiperazin-1-yl)piperidine-1-carbonyl)phenyl)amino)-5-methyl-5H-benzo[e]pyrimido[5,4-b][1,4]diazepin-6(11H)-one] | 100 |
